Measured values: PubChem BioAssay AID262 (DTP/NCI, 2004)
Several values for one entry are separate records, joined by “and”; a condition that tells them apart may be missing. Equal values may be shown once. Starred links: 1 amine or outer side, 2 acyl side, 3 side chain; linkers in the order of their positions; H or OH if unused. Positions of bridges follow the written chain, without caps; N, C: chain ends. Non-standard residues stand in square brackets, D forms with d. Residues, ends and D or L forms follow the SMILES beside them. Chains are numbered I, II in the order given. Actinocin(9to1) = Cc1c2oc3c(C)ccc(C(=O)[*:1])c3nc-2c(C(=O)[*:2])c(N)c1=O; aThr = C[C@H](O)[C@H](N)C(=O)O; NMeV = CN[C@H](C(=O)O)C(C)C; Sar = CNCC(=O)O

Tested on: LX-1 lung xenograft sc, nude mice, tumor weight
Test: NCI In Vivo Anticancer Drug Screen. Data for tumor model Human Lung LX-1 Xenograft (subcutaneous) in NU/NU Swiss (nude) mice
Details: endpoint: optimum tumor weight change, higher = larger tumour
Description: The antitumor activity of compounds was measured in mice bearing transplantable tumors. Survival or tumor size were measured and the results are expressed as the measurement made in the treated group (T) divided by the measurement made in the vehicle treated control group (C). The tumor model used in this assay is Human Lung LX-1 Xenograft (subcutaneous) in NU/NU Swiss (nude) mice

[1] = dose: 100.0 mg/kg/injection, schedule: Q04DX003 (ip), vehicle: Klucel (hydroxypropylcellulose) (HPC)
[2] = dose: 25.0 mg/kg/injection, schedule: Q04DX003 (ip), vehicle: saline with Tween-80
[3] = dose: 50.0 mg/kg/injection, schedule: Q04DX003 (ip), vehicle: saline with Tween-80
[4] = dose: 100.0 mg/kg/injection, schedule: Q04DX003 (ip), vehicle: saline with Tween-80
[5] = dose: 200.0 mg/kg/injection, schedule: Q04DX003 (ip), vehicle: saline with Tween-80
[6] = dose: 5.0 mg/kg/injection, schedule: Q04DX003 (ip), vehicle: Klucel (hydroxypropylcellulose) (HPC)
[7] = dose: 10.0 mg/kg/injection, schedule: Q04DX003 (ip), vehicle: Klucel (hydroxypropylcellulose) (HPC)
[8] = dose: 20.0 mg/kg/injection, schedule: Q04DX003 (ip), vehicle: Klucel (hydroxypropylcellulose) (HPC)
[9] = dose: 6.25 mg/kg/injection, schedule: Q04DX003 (ip), vehicle: saline
[10] = dose: 25.0 mg/kg/injection, schedule: Q04DX003 (ip), vehicle: saline
[11] = dose: 50.0 mg/kg/injection, schedule: Q04DX003 (ip), vehicle: saline
[12] = dose: 25.0 mg/kg/injection, schedule: Q04DX003 (ip), vehicle: Klucel (hydroxypropylcellulose) (HPC)
[13] = dose: 50.0 mg/kg/injection, schedule: Q04DX003 (ip), vehicle: Klucel (hydroxypropylcellulose) (HPC)
[14] = dose: 12.5 mg/kg/injection, schedule: Q04DX003 (ip), vehicle: saline

With `CS(=O)(=O)OCCN(CCOS(C)(=O)=O)c1ccc(C=Nc2ccc(-c3csc(COc4ccccc4)n3)cc2)cc1` the T/C [1] was 82 % of control.

`CC(=O)OCC1OC(n2cc(CBr)nn2)C(OC(C)=O)C(OC(C)=O)C1OC(C)=O` (stereo not given) was tested, and the T/C [2] was 169 % of control, the T/C [3] was 61 % of control and the T/C [4] was 107 % of control. The T/C [5] was 110 % of control.

`COC1C(C)OC(OC2CC(C)(O)Cc3cc4c(c(O)c32)C(=O)c2c(O)cc3c(c2C4=O)OC2OC3(C)C(O)C(N(C)C)C2O)C(OC)C1(C)OC` (stereo not given) was tested, and the T/C (dose: 2.5 mg/kg/injection, schedule: Q04DX003 (ip), vehicle: Klucel (hydroxypropylcellulose) (HPC)) was 69 % of control, the T/C [6] was 75 % of control and the T/C [7] was 56 % of control. For the same compound, the T/C [8] was 38 % of control.

`N/C(=N\O)c1cn(C2OC(CO)C(O)C2O)c2ncnc(N)c12` (stereo not given) was tested, and the T/C [6] was 70 % of control, the T/C [7] was 68 % of control and the T/C [8] was 62 % of control.

In the case of `CN(C)c1nc(N(C)C)nc(N(C)C)n1`, the T/C (dose: 60.0 mg/kg/injection, schedule: Q01DX005 (ip), vehicle: Klucel (hydroxypropylcellulose) (HPC)) is reported as 71 % of control, the T/C (dose: 60.0 mg/kg/injection, schedule: Q07DX005 (ip), vehicle: Klucel (hydroxypropylcellulose) (HPC)) is reported as 188 % of control and the T/C (dose: 120.0 mg/kg/injection, schedule: Q01DX005 (ip), vehicle: Klucel (hydroxypropylcellulose) (HPC)) is reported as 85 % of control. For the same compound, the T/C (dose: 120.0 mg/kg/injection, schedule: Q07DX005 (ip), vehicle: Klucel (hydroxypropylcellulose) (HPC)) was 78 % of control.

For `Cn1cnc([N+](=O)[O-])c1[Se]c1nc(N)nc2nc[nH]c12`, the T/C (dose: 25.0 mg/kg/injection, schedule: Q04DX003 (ip), vehicle: water) was 77 % of control, the T/C (dose: 50.0 mg/kg/injection, schedule: Q04DX003 (ip), vehicle: water) was 54 % of control and the T/C (dose: 100.0 mg/kg/injection, schedule: Q04DX003 (ip), vehicle: water) was 49 % of control.

In the case of `O=P1(NCCCl)OCCCN1CCCl` (stereo not given), the T/C [9] is reported as 26 % of control, the T/C [10] is reported as 54 % of control and the T/C [11] is reported as 39 % of control.

In the case of `O=C1N(Cl)C(=O)C(c2ccc(Cl)cc2)(c2ccc(Cl)cc2)N1Cl`, the T/C [4] is reported as 66 % of control and the T/C [5] is reported as 42 % of control.

In the case of `Cc1c2oc3c(C)ccc(C(=O)N[C@@H]4C(=O)N[C@H](C(C)C)C(=O)N5CCC[C@H]5C(=O)N(C)CC(=O)N(C)[C@@H](C(C)C)C(=O)O[C@H]4C)c3nc-2c(C(=O)N[C@@H]2C(=O)N[C@H](C(C)C)C(=O)N3CCC[C@H]3C(=O)N(C)CC(=O)N(C)[C@@H](C(C)C)C(=O)O[C@H]2C)c(N)c1=O` (I: [aThr][dV]P[Sar][NMeV] / II: [aThr][dV]P[Sar][NMeV]; ester I:1-I:C, II:1-II:C; linker I:N-II:N via Actinocin(9to1)), the T/C (dose: 150.0 micrograms/kg/injection, schedule: Q04DX003 (ip), vehicle: saline) is reported as 122 % of control and the T/C (dose: 300.0 micrograms/kg/injection, schedule: Q04DX003 (ip), vehicle: saline) is reported as 106 % of control.

With `O=NN(CCCl)C(=O)NC1CCC(=O)NC1=O` (stereo not given) the T/C (dose: 5.0 mg/kg/injection, schedule: Q04DX003 (ip), vehicle: saline with Tween-80) was 49 % of control.

For `O=NN(CCCl)C(=O)NC1CCCCC1`, the T/C [7] was 44 % of control and the T/C [8] was 32 % of control.

For `CC[C@]1(O)C[C@H]2CN(CCc3c([nH]c4ccccc34)[C@@](C(=O)OC)(c3cc4c(cc3OC)N(C=O)[C@H]3[C@@](O)(C(=O)OC)[C@H](OC(C)=O)[C@]5(CC)C=CCN6CC[C@]43[C@@H]65)C2)C1`, the T/C (dose: 0.25 mg/kg/injection, schedule: Q04DX003 (ip), vehicle: saline) was 98 % of control and the T/C (dose: 0.5 mg/kg/injection, schedule: Q04DX003 (ip), vehicle: saline) was 79 % of control.

For `CCOC(=O)C1C2OC(=O)C(C(=O)C2CN(CCCl)CCCl)C1C1CC=C(CC2=CCC(C3C4C(=O)OC(C(CN(CCCl)CCCl)C4=O)C3C(=O)OCC)CC2)CC1` (stereo not given), the T/C [12] was 58 % of control, the T/C [13] was 64 % of control and the T/C [1] was 55 % of control.

In the case of `CCC1=C[C@H]2CN(CCc3c([nH]c4ccccc34)[C@@](C(=O)OC)(c3cc4c(cc3OC)N(C)[C@H]3[C@@](O)(C(=O)NC)[C@H](OC(C)=O)[C@]5(CC)C=CCN6CC[C@]43[C@@H]65)C2)C1`, the T/C (dose: 0.25 mg/kg/injection, schedule: Q04DX003 (ip), vehicle: water) is reported as 69 % of control, the T/C (dose: 0.5 mg/kg/injection, schedule: Q04DX003 (ip), vehicle: water) is reported as 40 % of control and the T/C (dose: 1.0 mg/kg/injection, schedule: Q04DX003 (ip), vehicle: water) is reported as 98 % of control.

For `Cc1c(CNc2ccc(C(=O)NC(CC(=O)O)C(=O)O)cc2)ccc2nc(N)nc(N)c12` (stereo not given), the T/C (dose: 6.0 mg/kg/injection, schedule: Q04DX003 (ip), vehicle: saline with Tween-80) was 63 % of control, the T/C (dose: 12.0 mg/kg/injection, schedule: Q04DX003 (ip), vehicle: saline with Tween-80) was 94 % of control and the T/C (dose: 24.0 mg/kg/injection, schedule: Q04DX003 (ip), vehicle: saline with Tween-80) was 81 % of control.

In the case of `CCN(CC)CCCC(C)Nc1c2ccc(Cl)cc2nc2ccc(OC)cc12` (stereo not given), the T/C [2] is reported as 119 % of control, the T/C [3] is reported as 99 % of control and the T/C [4] is reported as 108 % of control.

In the case of `CN1CCN(CCCN2c3ccccc3Sc3ccc(C(F)(F)F)cc32)CC1`, the T/C [9] is reported as 63 % of control, the T/C [14] is reported as 78 % of control and the T/C [10] is reported as 84 % of control.

With `CCN(C)N=Nc1ccc(C(N)=O)cc1` the T/C [12] was 67 % of control, the T/C [13] was 9 % of control and the T/C (dose: 200.0 mg/kg/injection, schedule: Q04DX003 (ip), vehicle: Klucel (hydroxypropylcellulose) (HPC)) was -60 % of control.

With `O=c1[nH]c2c(ccc3cnccc32)c2c1CCC2` the T/C (dose: 12.5 mg/kg/injection, schedule: Q04DX003 (ip), vehicle: suspension in saline) was 35 % of control, the T/C (dose: 25.0 mg/kg/injection, schedule: Q04DX003 (ip), vehicle: suspension in saline) was 70 % of control and the T/C (dose: 50.0 mg/kg/injection, schedule: Q04DX003 (ip), vehicle: suspension in saline) was 61 % of control.

`COc1cccc2c1C(=O)c1c(O)c3c(c(O)c1C2=O)C[C@@](O)(/C(C)=N\O)C[C@@H]3OC1CC(N)C(O)C(C)O1` (stereo not given in full) was tested, and the T/C [14] was 55 % of control.

In the case of `COc1cc([C@@H]2c3cc4c(c(O)c3C[C@H]3COC(=O)[C@@H]32)OCO4)cc(OC)c1OC`, the T/C (dose: 2.5 mg/kg/injection, schedule: Q04DX003 (ip), vehicle: saline) is reported as 107 % of control, the T/C (dose: 5.0 mg/kg/injection, schedule: Q04DX003 (ip), vehicle: saline) is reported as 73 % of control and the T/C (dose: 10.0 mg/kg/injection, schedule: Q04DX003 (ip), vehicle: saline) is reported as 86 % of control. The T/C (dose: 20.0 mg/kg/injection, schedule: Q04DX003 (ip), vehicle: saline) was 64 % of control.

In the case of `CC(=O)OCC1OC(n2ccc(N)nc2=O)C(OC(C)=O)C1OC(C)=O` (stereo not given), the T/C (dose: 200.0 mg/kg/injection, schedule: Q04DX003 (ip), vehicle: suspension in saline) is reported as 102 % of control and the T/C (dose: 400.0 mg/kg/injection, schedule: Q04DX003 (ip), vehicle: suspension in saline) is reported as 78 % of control.

In the case of `COc1cc2c[n+](C)c3c4cc5c(cc4ccc3c2cc1OC)OCO5`, the T/C (dose: 20.0 mg/kg/injection, schedule: Q04DX003 (ip), vehicle: saline with Tween-80) is reported as 105 % of control, the T/C (dose: 40.0 mg/kg/injection, schedule: Q04DX003 (ip), vehicle: saline with Tween-80) is reported as 34 % of control and the T/C (dose: 80.0 mg/kg/injection, schedule: Q04DX003 (ip), vehicle: saline with Tween-80) is reported as 54 % of control.

With `[N-]=[N+]=CC(=O)CCC(N)C(=O)O` (stereo not given) the T/C (dose: 37.5 mg/kg/injection, schedule: Q04DX003 (ip), vehicle: saline) was -87 % of control.

For `N=C(N)Sc1ccccn1`, the T/C [11] was 182 % of control.

With `COc1cccc2c1C(=O)c1c(O)c3c(c(O)c1C2=O)C[C@@](O)(C(=O)CO)C[C@@H]3OC1CC(N)C(OC)C(C)O1` (stereo not given in full) the T/C (dose: 0.4 mg/kg/injection, schedule: Q04DX003 (ip), vehicle: saline) was 84 % of control, the T/C (dose: 0.79 mg/kg/injection, schedule: Q04DX003 (ip), vehicle: saline) was 106 % of control and the T/C (dose: 1.57 mg/kg/injection, schedule: Q04DX003 (ip), vehicle: saline) was 40 % of control.

In the case of `COC1C(O)CC(OC2CC(OC3CC(O[C@@H]4C(=O)c5c(cc6cc(OC7CC(OC8CC(O)C(O)C(C)O8)C(O)C(C)O7)c(C)c(O)c6c5O)C[C@H]4[C@H](OC)C(=O)[C@@H](O)[C@@H](C)O)OC(C)C3O)OC(C)C2O)OC1C` (stereo not given in full), the T/C (dose: 0.75 mg/kg/injection, schedule: Q04DX003 (ip), vehicle: saline) is reported as 104 % of control and the T/C (dose: 1.5 mg/kg/injection, schedule: Q04DX003 (ip), vehicle: saline) is reported as 53 % of control and 62 % of control.

With `CCCC(=O)OCc1cc(=O)n(C)c2c3c4c(cc12)c(C)cc(=O)n4CO3` the T/C [13] was 116 % of control.
